Consider four molecules from patent publication US20240325373A1, “METHODS AND COMPOSITIONS FOR INHIBITION OF DIHYDROOROTATE DEHYDROGENASE IN COMBINATION WITH AN ANTI-CD47-SIRPA THERAPEUTIC AGENT” (OHIO STATE INNOVATION FOUNDATION, priority 2021, published 2024).

Structures are written as SMILES.

For one data set, the system named is MV4-11 cells. The data set can be described thus: CALR, CD47 and SIRPα surface expression (MFI, flow cytometry) in MV4-11 cells after DHODHi treatment with or without uridine. Format: cell-based. Conditions: 72 h; BRQ 500 nM, Cpd4 10, 25, 50, 100 nM, BAY 1 nM; reversible with 0.1 mM uridine. The protocol: MV4-11 cells were treated with vehicle (DMSO), brequinar (BRQ, 500 nM), Cpd4 (10, 25, 50, 100 nM), or BAY2402234 (BAY, 1 nM) for 72 hours, in the presence or absence of exogenous uridine (0.1 mM). After the 72-hour treatment, cells were collected, washed and stained for flow cytometric analysis and the mean fluorescent intensity (MFI) measured to determine calreticulin (CALR) and CD47 surface expression.
(§1) FIGS. 8A-8B show representative data for the Mean Fluorescent Intensity (MFI) of SIRPα (CD172a) surface expression following the indicated treatments. […] Briefly, cells were treated for 72 hours to determine SIRPα level using flow cytometry and determine if SIRPα level was different in the P53 mutant clones. As shown, SIRPα level appears modestly higher in the heterozygous P53 MV4-11 clone. […] Briefly, MV4-11 cells were treated for 72 hours with DHODHi with or without uridine to measure SIRPα surface expression post DHODHi therapy.
For orientation: Flow cytometry measures light scatter and fluorescence of single cells or particles in a stream.

For the next data set, the system named is MOLM-13 cells. The data set can be described thus: Disseminated MOLM-13 xenograft, treatment from 4 days after implantation (Example 5). The format is in vivo. Also noted: ILS / Median survival: unit not given here. Conditions: for Statistical Significance: vs vehicle; for Median survival Ratio: Column A (vehicle) to Column B; for Median survival: treated group; for Hazard Ratio (Logrank) Ratio / Hazard Ratio (Mantel-Haenszel) Ratio: vehicle (Group 1) vs treated. The protocol: Briefly, ten week old male NCG mice (NOD-Prkdcem26Cd52//2rgem26Cd22/NjuCrl, Charles River) were injected intravenously (i.v.) in the tail vein with 1×10^5 MOLM-13 cells resuspended in cold phosphate buffer saline (PBS), using 0.2 mL of a suspension at 5×10^5 MOLM-13 cells/mL. Four days after tumor cell implantation, which was designated as Day 1 of the study, mice were randomized into eight treatment groups (n=10) based on body weights. Note that for the sample administration above, vehicle was a 50/50 mix of 40% HPBCD in sterile water and 10% Ethanol/90% PEG400. […] The remaining mice were left on study to monitor for an additional 25 days to determine if any residual disease would relapse following drug cessation. Thus, at day 106, all remaining mice were euthanized and spleens and bone marrow were harvested and analyzed by flow cytometry to investigate whether residual disease was present.

Data set [1] relates to MV4-11 P53 wild type, heterozygous and homozygous clones. The data set can be described thus: Sensitivity and CD47/SIRPα surface expression of MV4-11 P53 clones treated with DHODHi. The format is cell-based. Conditions: 72 h; reversed with 0.1 mM exogenous uridine. The procedure: MV4-11 cell line was reported to harbor a R248W TP53 hotspot mutation (Yan B, Chen Q, Xu J, Li W, Xu B, Qiu Y. Leukemia 2020 doi 10.1038/s41375-020-0710-7.). Accordingly, the MV4-11 cell line was single cell sorted to separate the P53 mutant sub-clone and generated three clones; P53 wild type, P53 heterozygous, and P53 homozygous to interrogate the potential role of P53 mutation on DHODHi activity and if DHODHi affected CD47 expression. Therefore, MV4-11 clones were treated with DHODHi, brequinar (BRQ) or Cpd4 for 72 hours. Cells were then collected, washed with PBS then stained for flow cytometry analysis of CD47 surface expression and the overall sensitivity of the MV4-11 clones to DHODHi.
as §1

The test system of a further data set is U266B1. The data set can be described thus: CD47 surface expression and viability by flow cytometry in multiple myeloma cell line U266B1. Conditions: three concentrations of Cpd4. The format is cell-based. The protocol: (§2) Briefly, tumor cells were typically grown at 37° C. in a humidified atmosphere with 5% C02 in RPMI 1640 medium, supplemented with 10% (v/v) fetal calf serum and 50 μg/ml gentamicin for up to 20 passages, and were typically passaged once or twice weekly. Cells were harvested by centrifugation, and the percentage of viable cells were determined using a CASY Model TT cell counter (OMNI Life Science). Cells were harvested from exponential phase cultures, counted and plated in […] plates at a cell density depending on the cell line's growth rate in RPMI 1640 medium supplemented with 10% (v/v) fetal calf serum and 50 µg/ml gentamicin (140 μl/well). At the time of plating, a t=0 h timepoint was taken as a baseline measurement (dotted horizontal lines in the figures). Cultures were incubated at 37° C. and 5% C02 in a humidified atmosphere. At 24 h after cell seeding, DMSO (vehicle control) or the test compound at three different concentrations was added, and left on the cells for another 48 h, 96 h, or 144 h. […] After standard washing techniques, the cells were analyzed on an Attune NxT Acoustic Focusing Cytometer (Thermo Fisher Scientific, Waltham, MA). Antibody Binding Capacity (ABC) was determined using Quantum™ Simply Cellular® quantification beads (Bio-Rad Laboratories, Hercules, CA).

Another data set relates to H929. Description: CD47 surface expression by flow cytometry in multiple myeloma cell line H929. Format: cell-based. Conditions: from 48 h after the start of treatment. The protocol:
as §2

Data set [2] can be described thus: Separate cell-based assays (IC50 of Cpd4).
In another data set the test system is MM1.S. Description: CD47 surface expression by flow cytometry in multiple myeloma cell line MM1.S. The format is cell-based. Conditions: from 48 h after the start of treatment. The protocol: as §2
Another data set relates to MOLM-13 tumor cells. The data set can be described thus: Disseminated MOLM-13 aggressive xenograft, treatment from 10 days after implantation (Example 6). Format: in vivo. The note with it: for BW Nadir (Lowest Mean Body Weight for Group): % of initial mean BW. The protocol: Briefly, NCG mice were i.v. injected in the tail vein with 1×10^5 MOLM-13 tumor cells suspended in PBS in a cell injection volume of 0.2 mL/mouse. Animals were randomized into treatment groups based on Day 1 body weight. The study start date (Day 1) was at 10 days post implant (tumor injection). In the study, males were separated into single housing if excessive fighting or aggressive behavior was observed. The animals were 8 to 12 weeks old at study start. […] Any group with a mean body weight loss of >20% or >10% mortality had dosing terminated, but not euthanized, and allowed to recover. Within a group, any individual animal with a >20% weight loss endpoint were euthanized. […] At the endpoint, the animals were euthanized per standard procedure. Clinical signs associated with progression of tumor include impairment of hind limb function, ocular proptosis, and weight loss. Full hindlimb paralysis, ocular proptosis, or moribundity were considered sufficient for euthanasia.

Data set [3] has as its system a variety of unrelated viruses. The note with it: in vitro; Harvey et al. (2009); read-out: EC50, inhibition of virus replication; cited from earlier work.

`CCn1c(CO)nn(-c2cc(O[C@@H](C)C(F)(F)F)c(C(=O)Nc3c(F)cccc3Cl)cc2F)c1=O` [BAY2402234, N-(2-chloro-6-fluorophenyl)-4-(4-ethyl-3-(hydroxymethyl)-5-oxo-4,5-dihydro-1H-1,2,4-triazol-1-yl)-5-fluoro-2-((1,1,1-trifluoropropan-2-yl)oxy)benzamide, reference compound]: in the data set on MV4-11 cells, the “CALR surface expression (MFI)” value is given as “upregulated” and the “CD47 surface expression (MFI)” value is on record as “upregulated”. Also, in the data set with MOLM-13 cells (4 mg/kg po qd), the “Deaths NTRa” value is listed as 1, the ILS was found to be 144, the “Mean BW Nadir” value is recorded as −5.7% and the “Median TTE” value turned out to be 44.0. Also, in the data set with MOLM-13 cells (4 mg/kg po qd), the “n Remaining Day 106” value is listed as 0, the “Statistical Significance” value is “*** (*** = P ≤ 0.001)”, the “Median survival Ratio” value was 0.4091 and the “Median survival” value is reported as 44. In the data set on MOLM-13 cells (4 mg/kg po qd), the “Hazard Ratio (Logrank) Ratio” value stood at 4.397 and the “Hazard Ratio (Mantel-Haenszel) Ratio” value was 21.48.
Take `Cc1c(-c2ccc(-c3ccccc3F)cc2)nc2ccc(F)cc2c1C(=O)O` [BRQ, 6-fluoro-2-(2′-fluoro-1,1-biphenyl-4-yl)-3-methyl-4-quinolinecarboxylic acid, reference compound]: in [1], the CD47 surface expression result is “upregulate surface CD47 expression regardless of the P53 mutation status” and the SIRPα surface expression result is reported as “upregulate surface SIRPα expression regardless of the P53 mutation status”. Further, in the data set with MV4-11 cells, the “CALR surface expression (MFI)” value was “upregulated” and the “CD47 surface expression (MFI)” value is “upregulated”.
In general, IC50 refers to the concentration that inhibits the measured activity by half. Regarding `CCCCOc1cccc(-c2ccc(-c3cc(C(=O)O)c4cc(F)ccc4n3)cc2)c1` [Cpd4, 2-(3′-butoxy-[1,1′-biphenyl]-4-yl)-6-fluoroquinoline-4-carboxylic acid], in the data set with U266B1 (48 h, 96 h, 144 h), the overall cell viability entry is “dose-dependent correlation in Cpd4 concentration and overall cell viability”. Moreover, in the data set with U266B1 (96 h and 144 h), the “surface expression of CD47 (median fluorescence intensity, antibody binding capacity)” value is on record as “increased in a dose-dependent manner”. In the data set on H929, the CD47 surface expression entry is given as “increase in CD47 surface expression in these cell lines apparent starting at 48 h”. The same molecule registered an IC50 in data set [2] of 11 nM. Moreover, in the data set with MM1.S, the CD47 surface expression result was “increase in CD47 surface expression in these cell lines apparent starting at 48 h”. In data set [1], the CD47 surface expression result is “upregulate surface CD47 expression regardless of the P53 mutation status” and the SIRPα surface expression result is listed as “upregulate surface SIRPα expression regardless of the P53 mutation status”. Moreover, in the data set on MV4-11 cells, the “CALR surface expression (MFI)” value is “upregulated” and the “CD47 surface expression (MFI)” value is given as “upregulated”. Besides, in the data set on MOLM-13 tumor cells (Cpd4 4.12 mg/kg po qd to end), the “ILS (Increased Life Span)” value turned out to be 174.1; the “Median TTE (Median Time to Endpoint)” value came to 37 days; the “NTR (No. of Non-treatment-related Deaths, due to Accident/Unknown Etiology)” value is 0; the “NTRm (No. of Non-treatment-related Deaths, due to Metastasis)” value was found to be 0. Moreover, in the data set with MOLM-13 tumor cells (Cpd4 4.12 mg/kg po qd to end), the “TR (No. of Treatment-related Deaths)” value amounted to 0, the “s (Number of Remaining Animals)” value came out at 0 and the “BW Nadir (Lowest Mean Body Weight for Group)” value is given as −9.0% (35). For the same molecule, in the data set with MOLM-13 tumor cells (Cpd4 10.31 mg/kg po qd to end), the “ILS (Increased Life Span)” value stood at 225.9; the “Median TTE (Median Time to Endpoint)” value is reported as 44 days; the “NTR (No. of Non-treatment-related Deaths, due to Accident/Unknown Etiology)” value turned out to be 0; the “NTRm (No. of Non-treatment-related Deaths, due to Metastasis)” value came to 0. In the data set with MOLM-13 tumor cells (Cpd4 10.31 mg/kg po qd to end), the “TR (No. of Treatment-related Deaths)” value is recorded as 0, the “s (Number of Remaining Animals)” value worked out at 5 and the “BW Nadir (Lowest Mean Body Weight for Group)” value was −5.2% (42). Further, in the data set with MOLM-13 cells (4 mg/kg po qd), the ILS came to 125, the “Mean BW Nadir” value is reported as −4.1%, the “Median TTE” value came to 40.5 and the “n Remaining Day 106” value is 0. In the data set on MOLM-13 cells (4 mg/kg po qd), the “Statistical Significance” value was “*** (*** = P ≤ 0.001)”, the “Median survival Ratio” value is 0.4444, the “Median survival” value was 40.5 and the “Hazard Ratio (Logrank) Ratio” value is reported as 4.553. Further, the “Hazard Ratio (Mantel-Haenszel) Ratio” value in the data set on MOLM-13 cells (4 mg/kg po qd) was 25.21. Moreover, in the data set with MOLM-13 cells (10 mg/kg po qd), the “Deaths TR” value turned out to be 0, the ILS came out at 183, the “Mean BW Nadir” value is −3.5% and the “Median TTE” value was 51.0. For the same molecule, in the data set with MOLM-13 cells (10 mg/kg po qd), the “n Remaining Day 106” value came out at 0, the “Statistical Significance” value is “*** (*** = P ≤ 0.001)”, the “Median survival Ratio” value came to 0.3529 and the “Median survival” value is given as 51. In the data set with MOLM-13 cells (10 mg/kg po qd), the “Hazard Ratio (Logrank) Ratio” value was found to be 4.553 and the “Hazard Ratio (Mantel-Haenszel) Ratio” value turned out to be 25.21.
Usually EC50 stands for the concentration that produces a half-maximal response. Regarding `O=C(N[C@@H]1CCCc2c1[nH]c1ccc(Cl)cc21)c1ccccn1` [GSK983], the 50% effective concentration (EC50) in data set [3] was 5 to 20 nM.
